Measurements taken from patent US20260042769A1, “TRIARYL AGONISTS OF ALPHA-2 ADRENERGIC RECEPTORS” (ALCEPTOR THERAPEUTICS, INC., priority 2023, published 2026).

molecular target: T1, human ADRA2B receptor (Homo sapiens, UniProt P18089); test: ADRA2B arrestin agonist assay; type: cell-based; conditions: CHO-K1 cells stably expressing human ADRA2B; read-out: Beta-Arrestin - Human Alpha2B EC50
T1 construct: expressed in transfected cells
T1 sequence (P18089 1-450): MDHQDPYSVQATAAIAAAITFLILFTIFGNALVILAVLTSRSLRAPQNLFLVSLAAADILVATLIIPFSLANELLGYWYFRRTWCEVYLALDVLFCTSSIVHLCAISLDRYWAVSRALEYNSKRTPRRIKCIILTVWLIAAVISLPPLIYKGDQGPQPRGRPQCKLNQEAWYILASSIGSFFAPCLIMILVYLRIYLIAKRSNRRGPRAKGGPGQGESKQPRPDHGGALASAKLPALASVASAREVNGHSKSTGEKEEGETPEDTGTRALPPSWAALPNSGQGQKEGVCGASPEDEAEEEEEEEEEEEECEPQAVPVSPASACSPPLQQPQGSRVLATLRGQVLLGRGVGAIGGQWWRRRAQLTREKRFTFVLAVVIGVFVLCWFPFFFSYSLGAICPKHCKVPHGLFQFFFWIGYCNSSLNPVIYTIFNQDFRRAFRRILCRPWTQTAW
Protocol: ADRA2A and ADRA2B Arrestin Agonist Assay Method
The arrestin assay uses frozen CHO-K1 cell lines stably expressing human ADRA2A and ADRA2B receptors. Cells are frozen following normal cell freezing protocols. Briefly, cells are washed with PBS and then dissociated with 0.25% trypsin. Dissociated cells are quenched in full media and then collected by centrifugation at 290×g for 5 minutes. […] Cells are stored at −80° C. (or in liquid N2 if stored >6 months) until the day of the assay.
On the day before the assay, frozen cells are thawed in a 37° C. water bath, brought up in 20 mL of full media, and collected via centrifugation at 290×g for 5 minutes. […] Cells are incubated overnight in a 37° C., 5% CO2 cell incubator.
On the day of the assay, agonists are diluted in Opti-MEM to 3.5x of the final assay concentration. 4 μL of agonists are added to the cells and incubated for 2 hours at 37° C. in a 5% CO2 cell incubator. 6 μL of arrestin detection reagents are dispensed onto the cells and the plates are incubated for 2 hours at room temperature. […] Plates are read on an Envision luminescence plate reader.

Structure (SMILES) | EC50 [nM]
Cc1cccc(C(Cc2cncc(F)c2)c2c[nH]cn2)c1F (stereo not drawn) [Compound 322, 4-[2-(5-fluoro-3-pyridyl)-1-(2-fluoro-3-tolyl)ethyl]imidazole] | 10 to 50
Cc1cc(CC(c2c[nH]cn2)c2cccc(C)c2C)ncn1 (stereo not drawn) [Compound 257, 4-[2-(4-imidazolyl)-2-(2,3-xylyl)ethyl]-6-methylpyrimidine] | > 500
COc1nccc(CC(c2c[nH]cn2)c2cccc(OC)c2F)n1 (stereo not drawn) [Compound 181, 4-[2-(2-fluoro-3-methoxyphenyl)-2-(4-imidazolyl)ethyl]-2-methoxypyrimidine] | 10 to 50
Cc1cccc([C@H](Cc2ccnc(C3CC3)n2)c2c[nH]cn2)c1C [Compound 168, 4-[(S)-2-(4-imidazolyl)-2-(2,3-xylyl)ethyl]-2-cyclopropylpyrimidine] | 10 to 50
Cc1cccc(C(Cc2cocn2)c2c[nH]cn2)c1F (stereo not drawn) [Compound 368, 4-[2-(2-fluoro-3-tolyl)-2-(4-imidazolyl)ethyl]-1,3-oxazole] | 50 to 500
Fc1c(Cl)cccc1C(Cc1cnco1)c1c[nH]cn1 (stereo not drawn) [Compound 392, 5-[2-(3-chloro-2-fluorophenyl)-2-(4-imidazolyl)ethyl]-1,3-oxazole] | 10 to 50
Cc1cccc(C(Cc2cocn2)c2c[nH]cn2)c1Cl (stereo not drawn) [Compound 376, 4-[2-(2-chloro-3-tolyl)-2-(4-imidazolyl)ethyl]-1,3-oxazole] | 10 to 50
Cc1cccc(C(Cn2cccn2)c2c[nH]cn2)c1C (stereo not drawn) [Compound 406, 1-[2-(4-imi-dazolyl)-2-(2,3-xylyl)ethyl]pyra-zole] | 10 to 50
Cc1cccc([C@H](Cc2cc[nH]n2)c2c[nH]cn2)c1C [Compound 235, 3-[(S)-2-(4-imidazolyl)-2-(2,3-xylyl)ethyl]pyrazole] | < 10
COc1nccc(CC(c2cccc(C)c2)c2c[nH]cn2)n1 (stereo not drawn) [Compound 337, 4-[2-(4-imidazolyl)-2-(m-tolyl)ethyl]-2-methoxypyrimidine] | 10 to 50
Cc1cc(CC(c2c[nH]cn2)c2cccc(Cl)c2F)ncn1 (stereo not drawn) [Compound 163, 4-[2-(3-chloro-2-fluorophenyl)-2-(4-imidazolyl)ethyl]-6-methylpyrimidine] | 50 to 500
COc1cc(Cl)cc(CC(c2c[nH]cn2)c2cccc3c2OCC3)n1 (stereo not drawn) [Compound 393, 4-[2-(4-chloro-6-methoxy-2-pyridyl)-1-(2,3-dihydro-1-benzofuran-7-yl)ethyl]imidazole] | 10 to 50
CN1CCc2cccc(C(Cc3cn(C)nn3)c3c[nH]cn3)c21 (stereo not drawn) [Compound 387, 4-[2-(4-imidazolyl)-2-(1-methyl-7-indolinyl)ethyl]-1-methyl-1H-1,2,3-triazole] | 50 to 500
Cc1cccc(C(Cc2ccc(C#N)nc2)c2c[nH]cn2)c1C (stereo not drawn) [Compound 145, 5-[2-(4-imidazolyl)-2 (2,3-xylyl)ethyl]-2-pyridinecarbonitrile] | 10 to 50
Cc1cccc([C@H](Cc2cocn2)c2c[nH]cn2)c1C [Compound 366, 4-[(S)-2-(4-imidazolyl)-2-(2,3-xylyl)ethyl]-1,3-oxazole] | < 10
Cc1cccc(C(Cc2cncnc2C)c2c[nH]cn2)c1C (stereo not drawn) [Compound 256, 5-[2-(4-imidazolyl)-2-(2,3-xylyl)ethyl]-4-methylpyrimidine] | 50 to 500
COc1nccc(C[C@H](c2c[nH]cn2)c2cccc3ccn(C)c23)n1 [Compound 349, 4-[(S)-2-(4-imidazolyl)-2-(1-methyl-7-indolyl)ethyl]-2-methoxypyrimidine] | > 500
Cc1cccc(CC(c2c[nH]cn2)c2cccc3ccn(C)c23)n1 (stereo not drawn) [Compound 284, 4-[1-(1-methyl-7-indolyl)-2-(6-methyl-2-pyridyl)ethyl]imidazole] | 10 to 50
COc1ncncc1CC(c1c[nH]cn1)c1cccc(C)c1C (stereo not drawn) [Compound 275, 5-[2-(4-imidazolyl)-2-(2,3-xylyl)ethyl]-4-methoxypyrimidine] | 10 to 50
Cn1ncc2c(C(Cc3cccc(CO)n3)c3c[nH]cn3)cccc21 (stereo not drawn) [Compound 301, {6-[2-(4-imidazolyl)-2-(1-methyl-1H-indazol-4-yl)ethyl]-2-pyridyl}methanol] | 10 to 50
Cc1nc(C[C@H](c2c[nH]cn2)c2cccc(C)c2C)co1 [Compound 374, 4-[(S)-2-(4-imidazolyl)-2-(2,3-xylyl)ethyl]-2-methyl-1,3-oxazole] | > 500
Cc1nccc(CC(c2ccc3c(c2)OCCO3)c2c[nH]cn2)n1 (stereo not drawn) [Compound 175, 4-[2-(2,3-dihydro-1,4-benzodioxin-6-yl)-2-(4 imidazolyl)ethyl]-2-methylpyrimidine] | > 500
Cc1cccc(C[C@@H](c2c[nH]cn2)c2cccc3c2OCC3)n1 [Compound 265, 4-[(R)-1-(2,3-dihydro-1-benzofuran-7-yl)-2-(6-methyl-2-pyridyl)ethyl]imida-zole] | 10 to 50
Cn1nccc1CC(c1c[nH]cn1)c1cccc2c1cnn2C (stereo not drawn) [Compound 269, 4-[1-(4-imidazolyl)-2-(1-methyl-5-pyrazolyl)ethyl]-1-methyl-1H-indazole] | 50 to 500

Further lines, results first:

EC50 [nM] | Structure (SMILES)
< 10 | Cc1cccc(C(Cc2ccc(F)c(CO)n2)c2c[nH]cn2)c1C (stereo not drawn) [Compound 318, {3-fluoro-6-[2-(4-imidazolyl)-2-(2,3-xylyl)ethyl]-2-pyridyl}methanol]
< 10 | Cc1cccc(C(Cc2ccnc(C3COC3)n2)c2c[nH]cn2)c1C (stereo not drawn) [Compound 210, 4-[2-(4-imidazolyl)-2-(2,3-xylyl)ethyl]-2-(3-oxetanyl)pyrimidine]
< 10 | c1cc2c(c(C(Cc3ccc4nccn4c3)c3c[nH]cn3)c1)OCC2 (stereo not drawn) [Compound 300]
< 10 | Cc1cccc(C(Cc2ccncc2Cl)c2c[nH]cn2)c1C (stereo not drawn) [Compound 396, 4-[2-(3-chloro-4-pyridyl)-1-(2,3-xylyl)ethyl]imidazole]
< 10 | Cc1cccc([C@H](Cc2ccn(CF)n2)c2c[nH]cn2)c1C [Compound 261, 3-[(S)-2-(4-imidazolyl)-2-(2,3-xylyl)ethyl]-1-(fluoromethyl)pyra-zole]
< 10 | Cc1cccc(C(Cc2ccc(N(C)C)nc2)c2c[nH]cn2)c1C (stereo not drawn) [Compound 292, N,N-dimethyl{5-[2-(4-imidazolyl)-2-(2,3-xylyl)ethyl]-2-pyridyl}amine]
< 10 | Cc1nccc(CC(c2c[nH]cn2)c2cccc3cccnc23)n1 (stereo not drawn) [Compound 341, 4-[2-(4-imidazolyl)-2-(8-quinolyl)ethyl]-2-methylpyrimidine]
< 10 | COCn1ccc(C[C@H](c2c[nH]cn2)c2cccc(C)c2C)n1 [Compound 278, 3-[(S)-2-(4-imidazolyl)-2-(2,3-xylyl)ethyl]-1-(methoxymethyl)pyrazole]
< 10 | COCc1nccc(CC(c2c[nH]cn2)c2cccc(C)c2C)n1 (stereo not drawn) [Compound 176, 4-[2-(4-imidazolyl)-2-(2,3-xylyl)ethyl]-2-(methoxymethyl) pyrimidine]
< 10 | Cc1cc(CC(c2c[nH]cn2)c2cccc(C)c2C)nc(C)n1 (stereo not drawn) [Compound 316, 4-[2-(4-imidazolyl)-2-(2,3-xylyl)ethyl]-2,6-dimethylpyrimidine]
< 10 | Cc1nc(C[C@@H](c2c[nH]cn2)c2cccc(C)c2C)c(C)o1 [Compound 379, 4-[(R)-2-(4-imidazolyl)-2-(2,3-xylyl)ethyl]-2,5-dimethyl-1,3-oxazole]

same assay, conditions: read-out: Beta-Arrestin - Human Alpha2B EC50

Structure (SMILES) | EC50 [nM]
Cc1cccc([C@H](Cc2cn[nH]c2)c2c[nH]cn2)c1C [Compound 233, 4-[(S)-2-(4-imidazolyl)-2-(2,3-xylyl)ethyl]pyrazole] | < 10
